# Laboratory results reported in patent US12486253B2, “Therapeutics for the degradation of mutant BRAF” (C4 THERAPEUTICS, INC., priority 2021, dated 2025).
# Target: BRAF V600E (Homo sapiens, UniProt P15056, V600E)
# Assay: HiBiT cellular BRAF^V600E degradation assay
# Format: cell-based
# Conditions: A375.10 cells, 24 h; for DC50: concentration at which 50% of total cellular BRAF^V600E is degraded; for Emax: residual protein remaining in the cell, read-out: HiBit 24 h Emax
# Sequence of BRAF V600E (P15056 whole entry V600E): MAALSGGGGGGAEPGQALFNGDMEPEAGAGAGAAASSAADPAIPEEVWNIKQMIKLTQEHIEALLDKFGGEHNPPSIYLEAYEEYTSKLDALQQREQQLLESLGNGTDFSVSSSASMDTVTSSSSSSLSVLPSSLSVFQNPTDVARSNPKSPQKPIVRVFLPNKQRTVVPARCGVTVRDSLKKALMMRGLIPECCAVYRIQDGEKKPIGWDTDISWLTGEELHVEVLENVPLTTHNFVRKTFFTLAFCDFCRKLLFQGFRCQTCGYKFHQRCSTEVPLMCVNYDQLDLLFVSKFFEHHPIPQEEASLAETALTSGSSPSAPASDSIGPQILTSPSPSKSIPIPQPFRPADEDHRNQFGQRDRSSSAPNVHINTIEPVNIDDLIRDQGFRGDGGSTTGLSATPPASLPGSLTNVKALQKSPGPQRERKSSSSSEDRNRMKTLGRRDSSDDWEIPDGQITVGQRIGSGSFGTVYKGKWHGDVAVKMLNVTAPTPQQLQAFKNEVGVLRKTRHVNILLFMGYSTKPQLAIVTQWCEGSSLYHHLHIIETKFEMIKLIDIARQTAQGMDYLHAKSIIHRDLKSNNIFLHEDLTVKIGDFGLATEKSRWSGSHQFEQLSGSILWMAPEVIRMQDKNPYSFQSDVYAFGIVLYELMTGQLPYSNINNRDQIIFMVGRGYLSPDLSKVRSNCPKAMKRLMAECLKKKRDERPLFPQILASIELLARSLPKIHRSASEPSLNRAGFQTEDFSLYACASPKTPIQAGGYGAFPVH
SMILES,DC50,Emax
"N#Cc1c(NS(=O)(=O)C2CCCC2)ccc(F)c1Oc1ccc2ncn(-c3cnc(N4CCN(C(=O)CN5CCC(c6ccc(N[C@H]7CCC(=O)NC7=O)cc6F)CC5)CC4)nc3)c(=O)c2c1 [Example 109, N-[2-cyano-3-[3-[2-[4-[2-[4-[4-[[(3S)-2,6-dioxopiperidin-3-yl]amino]-2-fluorophenyl]piperidin-1-yl]acetyl]piperazin-1-yl]pyrimidin-5-yl]-4-oxoquinazolin-6-yl]oxy-4-fluorophenyl]cyclopentanesulfonamide]",12.5 nM,9.04%
"CO[C@H]1CCN(S(=O)(=O)Nc2ccc(F)c(Oc3ccc4ncn(-c5cnc(N6CCN(C(=O)CN7CCC(c8ccc(N[C@@H]9CCC(=O)NC9=O)cc8F)CC7)CC6)nc5)c(=O)c4c3)c2C#N)C1 [Example 110, (3S)—N-[2-cyano-3-[3-[2-[4-[2-[4-[4-[[(3R)-2,6-dioxopiperidin-3-yl]amino]-2-fluorophenyl]piperidin-1-yl]acetyl]piperazin-1-yl]pyrimidin-5-yl]-4-oxoquinazolin-6-yl]oxy-4-fluorophenyl]-3-methoxypyrrolidine-1-sulfonamide]",42.5 nM,8.22%
"CO[C@H]1CCN(S(=O)(=O)Nc2ccc(F)c(Oc3ccc4ncn(-c5cnc(N6CCN(C(=O)CN7CCC(c8ccc(N[C@H]9CCC(=O)NC9=O)cc8F)CC7)CC6)nc5)c(=O)c4c3)c2C#N)C1 [Example 111, (3S)—N-[2-cyano-3-[3-[2-[4-[2-[4-[4-[[(3S)-2,6-dioxopiperidin-3-yl]amino]-2-fluorophenyl]piperidin-1-yl]acetyl]piperazin-1-yl]pyrimidin-5-yl]-4-oxoquinazolin-6-yl]oxy-4-fluorophenyl]-3-methoxypyrrolidine-1-sulfonamide]",18.6 nM,10.3%
"CC(C)S(=O)(=O)Nc1ccc(F)c(Oc2ccc3ncn(-c4cnc(N5CCN(C(=O)CN6CCC(c7ccc(N[C@H]8CCC(=O)NC8=O)cc7F)CC6)CC5)nc4)c(=O)c3c2)c1C#N [Example 112, N-[2-cyano-3-[3-[2-[4-[2-[4-[4-[[(3S)-2,6-dioxopiperidin-3-yl]amino]-2-fluorophenyl]piperidin-1-yl]acetyl]piperazin-1-yl]pyrimidin-5-yl]-4-oxoquinazolin-6-yl]oxy-4-fluorophenyl]propane-2-sulfonamide]",6.47 nM,8.79%
"N#Cc1c(NS(=O)(=O)N2CCCCC2)ccc(F)c1Oc1ccc2ncn(-c3cnc(N4CCN(C(=O)CN5CCC(c6ccc(N[C@H]7CCC(=O)NC7=O)cc6F)CC5)CC4)nc3)c(=O)c2c1 [Example 113, N-[2-cyano-3-[3-[2-[4-[2-[4-[4-[[(3S)-2,6-dioxopiperidin-3-yl]amino]-2-fluorophenyl]piperidin-1-yl]acetyl]piperazin-1-yl]pyrimidin-5-yl]-4-oxoquinazolin-6-yl]oxy-4-fluorophenyl]piperidine-1-sulfonamide]",29.7 nM,11.1%
"N#Cc1c(NS(=O)(=O)C2CC2)ccc(F)c1Oc1ccc2ncn(-c3cnc(N4CCN(C(=O)CN5CCC(c6ccc(N[C@H]7CCC(=O)NC7=O)cc6F)CC5)CC4)nc3)c(=O)c2c1 [Example 114, N-[2-cyano-3-[3-[2-[4-[2-[4-[4-[[(3S)-2,6-dioxopiperidin-3-yl]amino]-2-fluorophenyl]piperidin-1-yl]acetyl]piperazin-1-yl]pyrimidin-5-yl]-4-oxoquinazolin-6-yl]oxy-4-fluorophenyl]cyclopropanesulfonamide]",8.33 nM,9.6%
"N#Cc1c(NS(=O)(=O)C2CC2)ccc(F)c1Oc1ccc2ncn(-c3cnc(N4CCN(C(=O)CN5CCC(c6ccc(N[C@@H]7CCC(=O)NC7=O)cc6F)CC5)CC4)nc3)c(=O)c2c1 [Example 115, N-[2-cyano-3-[3-[2-[4-[2-[4-[4-[[(3R)-2,6-dioxopiperidin-3-yl]amino]-2-fluorophenyl]piperidin-1-yl]acetyl]piperazin-1-yl]pyrimidin-5-yl]-4-oxoquinazolin-6-yl]oxy-4-fluorophenyl]cyclopropanesulfonamide]",16.1 nM,12.8%
"N#Cc1c(NS(=O)(=O)N2CC[C@@H](F)C2)ccc(F)c1Oc1ccc2ncn(-c3cnc(N4CCN(C(=O)CN5CCC(c6ccc(N[C@H]7CCC(=O)NC7=O)cc6F)CC5)CC4)nc3)c(=O)c2c1 [Example 116, (3R)—N-[2-cyano-3-[3-[2-[4-[2-[4-[4-[[(3S)-2,6-dioxopiperidin-3-yl]amino]-2-fluorophenyl]piperidin-1-yl]acetyl]piperazin-1-yl]pyrimidin-5-yl]-4-oxoquinazolin-6-yl]oxy-4-fluorophenyl]-3-fluoropyrrolidine-1-sulfonamide]",17.1 nM,9.01%
"COC1CN(S(=O)(=O)Nc2ccc(F)c(Oc3ccc4ncn(-c5cnc(N6CCN(C(=O)CN7CCC(c8ccc(N[C@H]9CCC(=O)NC9=O)cc8F)CC7)CC6)nc5)c(=O)c4c3)c2C#N)C1 [Example 117, N-[2-cyano-3-[3-[2-[4-[2-[4-[4-[[(3S)-2,6-dioxopiperidin-3-yl]amino]-2-fluorophenyl]piperidin-1-yl]acetyl]piperazin-1-yl]pyrimidin-5-yl]-4-oxoquinazolin-6-yl]oxy-4-fluorophenyl]-3-methoxyazetidine-1-sulfonamide]",38.3 nM,9.02%
"CC(C)S(=O)(=O)Nc1ccc(F)c(Oc2ccc3ncn(-c4cnc(N5CCN(C(=O)CN6CCC(c7ccc(N[C@@H]8CCC(=O)NC8=O)cc7F)CC6)CC5)nc4)c(=O)c3c2)c1C#N [Example 118, N-[2-cyano-3-[3-[2-[4-[2-[4-[4-[[(3R)-2,6-dioxopiperidin-3-yl]amino]-2-fluorophenyl]piperidin-1-yl]acetyl]piperazin-1-yl]pyrimidin-5-yl]-4-oxoquinazolin-6-yl]oxy-4-fluorophenyl]propane-2-sulfonamide]",18.7 nM,9.98%
"CN(CC(F)F)S(=O)(=O)Nc1ccc(F)c(Oc2ccc3ncn(-c4cnc(N5CCN(C(=O)CN6CCC(c7ccc(N[C@@H]8CCC(=O)NC8=O)cc7F)CC6)CC5)nc4)c(=O)c3c2)c1C#N [Example 119, 6-[2-cyano-3-[[2,2-difluoroethyl(methyl)sulfamoyl]amino]-6-fluorophenoxy]-3-[2-[4-[2-[4-[4-[[(3R)-2,6-dioxopiperidin-3-yl]amino]-2-fluorophenyl]piperidin-1-yl]acetyl]piperazin-1-yl]pyrimidin-5-yl]-4-oxoquinazoline]",46.9 nM,12.8%
"CN(CCF)S(=O)(=O)Nc1ccc(F)c(Oc2ccc3ncn(-c4cnc(N5CCN(C(=O)CN6CCC(c7ccc(N[C@@H]8CCC(=O)NC8=O)cc7F)CC6)CC5)nc4)c(=O)c3c2)c1C#N [Example 120, 6-[2-cyano-6-fluoro-3-[[2-fluoroethyl(methyl)sulfamoyl]amino]phenoxy]-3-[2-[4-[2-[4-[4-[[(3R)-2,6-dioxopiperidin-3-yl]amino]-2-fluorophenyl]piperidin-1-yl]acetyl]piperazin-1-yl]pyrimidin-5-yl]-4-oxoquinazoline]",13.8 nM,11.6%
"CN(CCF)S(=O)(=O)Nc1ccc(F)c(Oc2ccc3ncn(-c4cnc(N5CCN(C(=O)CN6CCC(c7ccc(N[C@H]8CCC(=O)NC8=O)cc7F)CC6)CC5)nc4)c(=O)c3c2)c1C#N [Example 121, 6-[2-cyano-6-fluoro-3-[[2-fluoroethyl(methyl)sulfamoyl]amino]phenoxy]-3-[2-[4-[2-[4-[4-[[(3S)-2,6-dioxopiperidin-3-yl]amino]-2-fluorophenyl]piperidin-1-yl]acetyl]piperazin-1-yl]pyrimidin-5-yl]-4-oxoquinazoline]",14.6 nM,7.8%
